Test: Radiochemical stability in human serum (rad-TLC)
Assay type: in vitro ADME
Conditions: 37 °C
Experimental: The stability of PET probes [^18F]2 and [^18F]6 was measured in isotonic NaCl solution (0.9% NaCl) and mouse and human serums at 37 °C for up to 120 min by rad-TLC at 0 min, 30 min, 60 min and 120 min post incubation. The results obtained are presented in Fig. 5 and SI-Figs. S10–S15, SI-Table S1. […] The plausible explanation of the instability of [^18F]6 could be attributed to the covalent interaction of [^18F]6’s SO2F group with primary amines of amino acid residues present in the protein rich mouse and human serums. In fact, in an unrelated study, Zhao et al. reported formation of sulfonamide bond between sulfuryl fluoride and primary amine of conserved lysine residues of different kinases. […] Based on 2’s favorable blood–brain barrier permeability, nanomolar binding affinity and PET probe [^18F]2’s excellent stability in both mouse and human serums, further in vivo evaluations were performed only with PET probe [^18F]2.
Stability of [^18F]2 and [^18F]6 was assessed in isotonic NaCl solution and human and mouse serums. To perform this stability assay, 100 µL of [^18F]2 (~ 37.0 MBq) or 100 µL of [^18F]6 (~ 37.0 MBq) as in final formulation was added to 100 µL of human serum or mouse serum in a microcentrifuge tube. The resultant mixture was incubated at 37 °C for 120 min. To assess the radiochemical stability of the probes, a small aliquot (~ 0.5 µL) was taken out from the mixture in triplicate at 0 min, 30 min, 60 min and 120 min during incubation, and analyzed on a rad-TLC using 0.5:9.5 methanol: chloroform as a mobile phase using i-TLC to estimate the stability of [^18F]2 or [^18F]6 at different time points post-incubation. After Stability preparative processes initial i-TLC development was considered as 0 min.

Percentage of intact probe (0 min): 100 ± 0.0%
Percentage of intact probe (30 min): 100 ± 0.0%
Percentage of intact probe (60 min): 100 ± 0.0%
Compound: O=C(Nc1cnccc1-c1ccc([18F])cc1)c1ccnc(NC(=O)C2CC2)c1 [[^18F]2]
